Reference: US20060189613A1, “Sulphonamide Compounds that Modulate Chemokine Receptor Activity (CCR4)” (priority 2003, published 2006)

Row | melting point [°C] | SMILES
1 | 210 to 211 | COc1ccnnc1NS(=O)(=O)c1cccc(Cl)c1Cl [Example 1, 2,3-Dichloro-N-[4-methoxy-3-pyridazinyl]benzenesulphonamide]
2 | 190 to 191 | COc1cnc(C(F)(F)F)nc1NS(=O)(=O)c1cccc(Cl)c1Cl [Example 10, 2,3-Dichloro-N-[5-methoxy-2-trifluoromethyl-4-pyrimidinyl]benzenesulphonamide]
3 | 249 to 250 | COc1cnc(C)nc1NS(=O)(=O)c1ccc(Cl)s1 [Example 12, 5-Chloro-thiophene-2-sulphonic acid, [5-methoxy-2-methyl-4-pyrimidinyl]amide]
4 | 216 to 217 | O=S(=O)(Nc1nnc(Cl)cc1OCc1cccnc1)c1cccc(Cl)c1Cl [Example 3, 2,3-Dichloro-N-[6-chloro-4-(3-pyridinylmethoxy)-3-pyridazinyl]benzenesulphonamide]
5 | 204 to 211 | COc1ncncc1NS(=O)(=O)c1cccc(Cl)c1Cl [Example 6, 2,3-Dichloro-N-[4-methoxy-5-pyrimidinyl]benzenesulphonamide]
6 | 201 to 202 | COc1cnc(Cl)nc1NS(=O)(=O)c1ccc(Cl)s1 [Example 11, 5-Chloro-thiophene-2-sulphonic acid, [2-chloro-5-methoxy-4-pyrimidinyl]amide]
7 | 120 to 122 | COc1cc(Cl)nnc1NS(=O)(=O)c1ccc(Cl)s1 [Example 13, 5-Chloro-N-[6-chloro-4-methoxy-3-pyridazinyl]thiophene-2-sulphonamide]
8 | 124 to 126 | COc1ncc(NS(=O)(=O)c2cccc(Cl)c2Cl)c(OC)n1 [Example 5, 2,3-Dichloro-N-[2,4-dimethoxy-5-pyrimidinyl]benzenesulphonamide]
9 | 226 to 227 | COc1cc(Cl)nnc1NS(=O)(=O)c1cccc(Cl)c1Cl [Example 2, 2,3-Dichloro-N-[6-chloro-4-methoxy-3-pyridazinyl]benzenesulphonamide]
10 | 278 to 279 | COc1cncnc1NS(=O)(=O)c1cccc(Cl)c1Cl [Example 8, 2,3-Dichloro-N-[5-methoxy-4-pyrimidinyl]benzenesulphonamide]
11 | 244 to 245 | COc1cnc(Cl)nc1NS(=O)(=O)c1cccc(Cl)c1Cl [Example 7, 2,3-Dichloro-N-[2-chloro-5-methoxy-4-pyrimidinyl]benzenesulphonamide]
